One assay has as its system N. gonorrhoeae WHO Q. The experiment in a line: Liquid broth MIC in Fastidious broth. As to conditions: Neisseria gonorrhoeae, read-out: Minimum Inhibitory Concentration, WHO Q.
For assay [1], the system named is N. gonorrhoeae ATCC 49226. Briefly: Liquid broth MIC in Fastidious broth. Conditions: Neisseria gonorrhoeae, ATCC49226, read-out: Minimum Inhibitory Concentration, ATCC 49226.
In the next assay the test system is N. gonorrhoeae WHO Z. The experiment in a line: Liquid broth MIC in Fastidious broth. As to conditions: Neisseria gonorrhoeae, read-out: Minimum Inhibitory Concentration, WHO Z.
The next assay has as its system N. gonorrhoeae WHO M. The experiment in a line: Liquid broth MIC in Fastidious broth. As to conditions: Neisseria gonorrhoeae, read-out: Minimum Inhibitory Concentration, WHO M.
For assay [2], the target named is T1, PBP1a from Acinetobacter baumannii (ATCC 19606) (Acinetobacter baumannii, UniProt A0ABX6CK30).
T1 sequence (A0ABX6CK30 1-851): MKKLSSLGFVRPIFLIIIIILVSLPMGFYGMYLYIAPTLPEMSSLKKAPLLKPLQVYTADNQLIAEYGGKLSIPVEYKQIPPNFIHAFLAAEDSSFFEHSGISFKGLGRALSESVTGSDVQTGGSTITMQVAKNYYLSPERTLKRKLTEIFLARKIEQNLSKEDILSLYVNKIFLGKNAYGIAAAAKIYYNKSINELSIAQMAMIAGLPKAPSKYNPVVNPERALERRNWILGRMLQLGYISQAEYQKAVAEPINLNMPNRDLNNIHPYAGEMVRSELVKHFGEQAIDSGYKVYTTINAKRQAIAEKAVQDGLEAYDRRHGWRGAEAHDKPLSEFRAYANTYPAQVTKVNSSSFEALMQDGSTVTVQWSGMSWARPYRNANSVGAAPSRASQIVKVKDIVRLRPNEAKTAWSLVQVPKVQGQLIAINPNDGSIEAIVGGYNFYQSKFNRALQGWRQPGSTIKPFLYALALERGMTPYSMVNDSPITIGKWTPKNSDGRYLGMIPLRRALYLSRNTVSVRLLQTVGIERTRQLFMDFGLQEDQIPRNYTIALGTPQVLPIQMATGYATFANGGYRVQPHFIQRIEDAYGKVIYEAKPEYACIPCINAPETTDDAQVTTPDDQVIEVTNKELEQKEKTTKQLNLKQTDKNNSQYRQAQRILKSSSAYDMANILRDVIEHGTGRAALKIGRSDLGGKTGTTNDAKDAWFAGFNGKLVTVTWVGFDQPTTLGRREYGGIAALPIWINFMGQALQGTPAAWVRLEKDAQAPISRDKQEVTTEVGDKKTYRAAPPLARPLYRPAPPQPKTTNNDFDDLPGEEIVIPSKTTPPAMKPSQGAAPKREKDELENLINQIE
Briefly: Bocillin-FL fluorescence polarization competition binding, A. baumannii PBP1a. Conditions: fluorescence polarization competition binding assay using Bocillin-FL; read-out: A. baumannii PBP1a Potency. The method in brief:
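Purified PBP was preincubated with inhibitor (E. coli PBP3 1.5 μM, 30 min; P. aeruginosa PBP3 0.75 μM, A. baumannii PBP3 0.2 μM and PBP1a 1 μM, 15 min), then Bocillin-FL (0.1 μM; 0.05 μM for PBP1a) added and FP read up to 60 min. EC50 = 50% loss of bound probe.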
For orientation: Polarisation of emitted light reports the rotation of a fluorescent probe.

The source of these data is patent US20240270762A1, “PENICILLIN-BINDING PROTEIN INHIBITORS” (priority 2021, published 2024).

pIC50: −log10 of the molar value. ≈ marks a conversion by molar mass, not a printed value.

Experimental for N. gonorrhoeae WHO Z: Additional antibacterial testing of the series was performed in 8 reference strains of N. gonorrhoeae (ATCC 49226, FA1090, MS 11, WHO G, WHO L, WHO M, WHO K, WHO X, WHO Z, WHO Q, CDC-0197). ATCC 49226, FA1090, MS11, WHO G, WHO L, and WHO M produce wild type or wild-type like PBP2. WHO K, WHO X, WHO Z, WHO Q, and CDC-0197 produce mosaic PBP2. Liquid broth-based assays were used for antibacterial testing of PBP inhibitors in Neisseria gonorrhoeae. Briefly, cryo-preserved bacterial cultures of clinical strains were streaked for isolation on Chocolate Agar (72 g/L (2×) GC Agar Base (BD #228950) and 2% (2×) Hemoglobin was autoclaved at 121° C. for 20 minutes to sterilize. Once cooled to ˜50° C. the 2×GC Agar Base and 2× Hemoglobin solutions are combined and 1% IsoVitaleX Enrichment (BD #211876) was added to the solution). Strains were incubated at 36° C. and 5% CO2 to allow growth of colonies, 24 hours before inoculum preparation. 2-fold serial dilutions of test compounds were conducted in a 96 well plate with a final volume of 75 μL per well at 2-fold the final desired concentration in Fastidious broth (Remel #R07664). For preparation of assay inoculum, a direct suspension was prepared by aseptically swabbing 10-15 colonies from agar plates into culture tubes containing 2 mL of fresh sterile saline. After the dilution plates were set up, direct suspensions were then diluted in a cuvette containing sterile saline and the optical density was measured at 600 nm. Inocula were diluted such that 75 μL of this culture in Fastidious broth results in a starting bacterial concentration of 5×10^5 CFU/mL when added to the dilution plates. The plates were incubated for ˜24 hours at 36° C. and 5% CO2.

With `O=C(NCCS(=O)(=O)N1CCN(C(=O)N[C@@H](C(=O)N[C@H]2Cc3ccc(F)c(C(=O)O)c3OB2O)c2cc(F)c(O)c(O)c2Cl)C1=O)c1ccc(O)cc1` [Example 287, (R)-3-((R)-2-(2-chloro-5-fluoro-3,4-dihydroxyphenyl)-2-(3-((2-(4-hydroxybenzamido)ethyl)sulfonyl)-2-oxoimidazolidine-1-carboxamido)acetamido)-7-fluoro-2-hydroxy-3,4-dihydro-2H-benzo[e][1,2]oxaborinine-8-carboxylic acid], the MIC (in the assay with N. gonorrhoeae WHO Q; in assay [1]; in the assay on N. gonorrhoeae WHO Z; with N. gonorrhoeae WHO M) was 4 to 8 µg/mL (≈ 5.12 to 10.2 µM) throughout. The pIC50 in assay [2] was below 3.60.

Regarding `O=C(NCCS(=O)(=O)N1CCN(C(=O)NC(C(=O)N[C@H]2Cc3ccc(F)c(C(=O)O)c3OB2O)c2cc(F)c(O)c(O)c2Cl)C1=O)c1ccncc1` (stereo partly drawn) [Example 288, (3R)-3-(2-(2-chloro-5-fluoro-3,4-dihydroxyphenyl)-2-(3-((2-(isonicotinamido)ethyl)sulfonyl)-2-oxoimidazolidine-1-carboxamido)acetamido)-7-fluoro-2-hydroxy-3,4-dihydro-2H-benzo[e][1,2]oxaborinine-8-carboxylic acid], the MIC in the assay on N. gonorrhoeae WHO Q lay in the range of 16 to 32 µg/mL (≈ 20.9 to 41.7 µM); in assay [1] it was 16 to 32 µg/mL (≈ 20.9 to 41.7 µM); in the assay with N. gonorrhoeae WHO Z, 4 to 8 µg/mL (≈ 5.22 to 10.4 µM); in the assay on N. gonorrhoeae WHO M, 4 to 8 µg/mL (≈ 5.22 to 10.4 µM). In addition, the pIC50 in assay [2] was below 3.60.

Consider `O=C(NCCS(=O)(=O)N1CCN(C(=O)NC(C(=O)N[C@H]2Cc3ccc(F)c(C(=O)O)c3OB2O)c2cc(F)c(O)c(O)c2Cl)C1=O)Nc1ccc(O)cc1` (stereo partly drawn) [Example 289, (3R)-3-(2-(2-chloro-5-fluoro-3,4-dihydroxyphenyl)-2-(3-((2-(3-(4-hydroxyphenyl)ureido)ethyl)sulfonyl)-2-oxoimidazolidine-1-carboxamido)acetamido)-7-fluoro-2-hydroxy-3,4-dihydro-2H-benzo[e][1,2]oxaborinine-8-carboxylic acid], for which the MIC with N. gonorrhoeae WHO Q lay within 4 to 8 µg/mL (≈ 5.02 to 10 µM); in assay [1], 16 to 32 µg/mL (≈ 20.1 to 40.2 µM); with N. gonorrhoeae WHO Z, 4 to 8 µg/mL (≈ 5.02 to 10 µM); in the assay with N. gonorrhoeae WHO M, 4 to 8 µg/mL (≈ 5.02 to 10 µM). Also, in assay [2], the pIC50 was below 3.60.

Regarding `O=C(NCCS(=O)(=O)N1CCN(C(=O)N[C@@H](C(=O)N[C@H]2Cc3ccc(F)c(C(=O)O)c3OB2O)c2cc(F)c(O)c(O)c2Cl)C1=O)Nc1ccncc1` [Example 290, (R)-3-((R)-2-(2-chloro-5-fluoro-3,4-dihydroxyphenyl)-2-(2-oxo-3-((2-(3-(pyridin-4-yl)ureido)ethyl)sulfonyl)imidazolidine-1-carboxamido)acetamido)-7-fluoro-2-hydroxy-3,4-dihydro-2H-benzo[e][1,2]oxaborinine-8-carboxylic acid], the MIC in the assay on N. gonorrhoeae WHO Q was in the range of 16 to 32 µg/mL (≈ 20.5 to 40.9 µM); in assay [1], 16 to 32 µg/mL (≈ 20.5 to 40.9 µM); with N. gonorrhoeae WHO Z, 4 to 8 µg/mL (≈ 5.12 to 10.2 µM); in the assay with N. gonorrhoeae WHO M, 16 to 32 µg/mL (≈ 20.5 to 40.9 µM). Moreover, in assay [2], the pIC50 was below 3.60.

Take `O=C(NCCCS(=O)(=O)N1CCN(C(=O)NC(C(=O)N[C@H]2Cc3ccc(F)c(C(=O)O)c3OB2O)c2cc(F)c(O)c(O)c2Cl)C1=O)Nc1ccncc1` (stereo partly drawn) [Example 291, (3R)-3-(2-(2-chloro-5-fluoro-3,4-dihydroxyphenyl)-2-(2-oxo-3-((3-(3-(pyridin-4-yl)ureido)propyl)sulfonyl)imidazolidine-1-carboxamido)acetamido)-7-fluoro-2-hydroxy-3,4-dihydro-2H-benzo[e][1,2]oxaborinine-8-carboxylic acid]: the MIC in the assay with N. gonorrhoeae WHO Q was 16 to 32 µg/mL (≈ 20.1 to 40.2 µM); in assay [1], 16 to 32 µg/mL (≈ 20.1 to 40.2 µM); in the assay on N. gonorrhoeae WHO Z, 4 to 8 µg/mL (≈ 5.03 to 10.1 µM); in the assay on N. gonorrhoeae WHO M it was 16 to 32 µg/mL (≈ 20.1 to 40.2 µM). For the same compound, in assay [2], the pIC50 is below 3.60.

For the compound `O=C(O)c1c(F)ccc2c1OB(O)[C@@H](NC(=O)C(NC(=O)N1CCN(Cc3ccc(O)c(O)c3Cl)C(=O)C1=O)c1cc(F)c(O)c(O)c1Cl)C2` (stereo partly drawn) [Example 292, (3R)-3-(2-(4-(2-chloro-3,4-dihydroxybenzyl)-2,3-dioxopiperazine-1-carboxamido)-2-(2-chloro-5-fluoro-3,4-dihydroxyphenyl)acetamido)-7-fluoro-2-hydroxy-3,4-dihydro-2H-benzo[e][1,2]oxaborinine-8-carboxylic acid], the MIC (in the assay on N. gonorrhoeae WHO Q; in assay [1]; in the assay with N. gonorrhoeae WHO Z; with N. gonorrhoeae WHO M) was above 64 µg/mL each time. Also, in assay [2], the pIC50 is below 3.60.

Turning to `O=C(O)c1c(F)ccc2c1OB(O)[C@@H](NC(=O)C(NC(=O)N1CCN(C3CCN(C(=O)c4cccc(O)c4)CC3)C(=O)C1=O)c1cc(F)c(O)c(O)c1Cl)C2` (stereo partly drawn) [Example 293, (3R)-3-(2-(2-chloro-5-fluoro-3,4-dihydroxyphenyl)-2-(4-(1-(3-hydroxybenzoyl)piperidin-4-yl)-2,3-dioxopiperazine-1-carboxamido)acetamido)-7-fluoro-2-hydroxy-3,4-dihydro-2H-benzo[e][1,2]oxaborinine-8-carboxylic acid], the MIC with N. gonorrhoeae WHO Q was above 64 µg/mL; in assay [1], 16 to 32 µg/mL (≈ 20.4 to 40.7 µM); in the assay on N. gonorrhoeae WHO Z, above 64 µg/mL; with N. gonorrhoeae WHO M, 16 to 32 µg/mL (≈ 20.4 to 40.7 µM). Also, in assay [2], the pIC50 is below 3.60.

On to `O=C(NCCCN1CCN(C(=O)N[C@@H](C(=O)N[C@H]2Cc3ccc(F)c(C(=O)O)c3OB2O)c2cc(F)c(O)c(O)c2Cl)C(=O)C1=O)c1ccncc1` [Example 294, (R)-3-((R)-2-(2-chloro-5-fluoro-3,4-dihydroxyphenyl)-2-(4-(3-(isonicotinamido)propyl)-2,3-dioxopiperazine-1-carboxamido)acetamido)-7-fluoro-2-hydroxy-3,4-dihydro-2H-benzo[e][1,2]oxaborinine-8-carboxylic acid], for which the MIC was above 64 µg/mL in the assay with N. gonorrhoeae WHO Q, 16 to 32 µg/mL (≈ 21.5 to 43 µM) in assay [1], 16 to 32 µg/mL (≈ 21.5 to 43 µM) in the assay with N. gonorrhoeae WHO Z and 16 to 32 µg/mL (≈ 21.5 to 43 µM) in the assay on N. gonorrhoeae WHO M. Besides, the pIC50 in assay [2] is below 3.60.

As to `O=C(NCCCN1CCN(C(=O)NC(C(=O)N[C@H]2Cc3ccc(F)c(C(=O)O)c3OB2O)c2cc(F)c(O)c(O)c2Cl)C(=O)C1=O)c1ccncc1Cl` (stereo partly drawn) [Example 295, (3R)-3-(2-(2-chloro-5-fluoro-3,4-dihydroxyphenyl)-2-(4-(3-(3-chloroisonicotinamido)propyl)-2,3-dioxopiperazine-1-carboxamido)acetamido)-7-fluoro-2-hydroxy-3,4-dihydro-2H-benzo[e][1,2]oxaborinine-8-carboxylic acid], the MIC was above 64 µg/mL with N. gonorrhoeae WHO Q, 16 to 32 µg/mL (≈ 20.5 to 41.1 µM) in assay [1], above 64 µg/mL in the assay on N. gonorrhoeae WHO Z and 16 to 32 µg/mL (≈ 20.5 to 41.1 µM) in the assay on N. gonorrhoeae WHO M. In assay [2], the pIC50 is below 3.60.

Consider `O=C(NCCCN1CCN(C(=O)N[C@@H](C(=O)N[C@H]2Cc3ccc(F)c(C(=O)O)c3OB2O)c2cc(F)c(O)c(O)c2Cl)C(=O)C1=O)c1ccncc1O` [Example 296, (R)-3-((R)-2-(2-chloro-5-fluoro-3,4-dihydroxyphenyl)-2-(4-(3-(3-hydroxyisonicotinamido)propyl)-2,3-dioxopiperazine-1-carboxamido)acetamido)-7-fluoro-2-hydroxy-3,4-dihydro-2H-benzo[e][1,2]oxaborinine-8-carboxylic acid], for which the MIC in the assay on N. gonorrhoeae WHO Q is above 64 µg/mL; in assay [1], 16 to 32 µg/mL (≈ 21 to 42.1 µM); in the assay on N. gonorrhoeae WHO Z it was above 64 µg/mL; with N. gonorrhoeae WHO M, 16 to 32 µg/mL (≈ 21 to 42.1 µM). In addition, the pIC50 in assay [2] is below 3.60.

As for `Cc1cnccc1C(=O)NCCCN1CCN(C(=O)NC(C(=O)N[C@H]2Cc3ccc(F)c(C(=O)O)c3OB2O)c2cc(F)c(O)c(O)c2Cl)C(=O)C1=O` (stereo partly drawn) [Example 297, (3R)-3-(2-(2-chloro-5-fluoro-3,4-dihydroxyphenyl)-2-(4-(3-(3-methylisonicotinamido)propyl)-2,3-dioxopiperazine-1-carboxamido)acetamido)-7-fluoro-2-hydroxy-3,4-dihydro-2H-benzo[e][1,2]oxaborinine-8-carboxylic acid], the MIC was above 64 µg/mL in the assay with N. gonorrhoeae WHO Q, 16 to 32 µg/mL (≈ 21.1 to 42.2 µM) in assay [1], above 64 µg/mL in the assay with N. gonorrhoeae WHO Z and 16 to 32 µg/mL (≈ 21.1 to 42.2 µM) in the assay on N. gonorrhoeae WHO M. For the same compound, the pIC50 in assay [2] was below 3.60.
